Results taken from patent publication US9512128B2 (BAYER CROPSCIENCE AG, priority 2012, dated 2016).
Where two headings read alike, the source gives them in different places.

What was measured:
[1] = system: greenhouse red spider mite (Tetranychus urticae); experiment: Tetranychus urticae spray test, OP-resistant (TETRUR); type: in vivo; conditions: after 6 days, bean leaf discs
Experimental: 4. Tetranychus urticae Spray Test, OP-Resistant (TETRUR)
• Solvents: 78.0 parts by weight of acetone • 1.5 part by weight of dimethylformamide • Emulsifier: 0.5 part by weight of alkylaryl polyglycol ether
To produce a suitable preparation of active compound, 1 part by weight of active compound is mixed with the stated amounts of solvents and emulsifier, and the concentrate is diluted with emulsifier-containing water to the desired concentration.
Discs of bean leaves (Phaseolus vulgaris) which are infested by all stages of the greenhouse red spider mite (Tetranychus urticae) are sprayed with an active compound preparation of the desired concentration.
After 6 days, the efficacy in % is determined. 100% means that all of the spider mites have been killed; 0% means that none of the spider mites have been killed.

[2] = log P by HPLC on reversed-phase columns (C 18), EEC directive 79/831 Annex V.A8; type: physicochemical
Experimental: The log P values were determined according to EEC directive 79/831 Annex V.A8 by HPLC (High Performance Liquid Chromatography) on reversed-phase columns (C 18), using the methods below:
[a] The LC-MS determination in the acidic range is carried out at pH 2.7 with 0.1% aqueous formic acid and acetonitrile (contains 0.1% formic acid) as mobile phases; linear gradient from 10% acetonitrile to 95% acetonitrile.
[b] The LC-MS determination in the neutral range is carried out at pH 7.8 using the mobile phases 0.001 molar aqueous ammonium bicarbonate solution and acetonitrile; linear gradient from 10% acetonitrile to 95% acetonitrile.

[3] = reversed-phase C18 HPLC column, pH 2.7, acidic range, pH 2.7, 0.1% aqueous formic acid / acetonitrile, read-out: log P[a]
[4] = reversed-phase C18 HPLC column, pH 7.8, neutral range, pH 7.8, 0.001 molar aqueous ammonium bicarbonate / acetonitrile, read-out: log P[b]
[5] = acidic range, pH 2.7, 0.1% aqueous formic acid / acetonitrile, read-out: log P[a]
[6] = neutral range, pH 7.8, 0.001 molar aqueous ammonium bicarbonate / acetonitrile, read-out: log P[b]

chromatographic logP [2, 3]	SMILES	efficacy in % (spider mites killed) ([1]; application rate 500 g/ha)	also measured
	CCn1ncc2c(=O)n(-c3cc([S+]([O-])CC(F)(F)F)c(C)cc3F)cnc21 (stereo not shown) [Compound 126]	90%	
	CCn1ncc2c(=O)n(-c3cc([S+]([O-])CC(F)(F)F)c(C)cc3F)c(C)nc21 (stereo not shown) [Compound 127]	100%	
	Cc1cc(F)c(-n2cnc3c(C)nn(C)c3c2=O)cc1SCC(F)(F)F [Compound 128]	100%	
	Cc1cc(C)c(-n2cnc3cnn(C)c3c2=O)cc1SCC(F)(F)F [Compound 130]	100%	
	Cc1cc(C)c(-n2c(C)nc3cnn(C)c3c2=O)cc1SCC(F)(F)F [Compound 131]	90%	
	Cc1cc(C)c([S+]([O-])CC(F)(F)F)cc1-n1nnc2cnn(C)c2c1=O (stereo not shown) [Compound 132]	100%	
	Cc1cc(C)c(-n2nnc3cnn(C)c3c2=O)cc1SCC(F)(F)F [Compound 133]	90%	
	Cc1cc(C)c([S+]([O-])CC(F)(F)F)cc1-n1c(C)nc2cnn(C)c2c1=O (stereo not shown) [Compound 135]	90%	
	Cc1cc(F)c(-n2nnc3cnn(C)c3c2=O)cc1SCC(F)(F)F [Compound 137]	100%	
	Cc1ccc(-n2cnc3cnn(C)c3c2=O)cc1SCC(F)(F)F [Compound 138]	100%	
	Cc1cc(F)c(-n2c(C)nc3cnn(C)c3c2=O)cc1SCC(F)(F)F [Compound 139]	100%	
	Cn1ncc2ncn(-c3cc(SCC(F)(F)F)c(Cl)cc3Cl)c(=O)c21 [Compound 140]	100%	
	Cn1ncc2ncn(-c3cc([S+]([O-])CC(F)(F)F)c(Cl)cc3Cl)c(=O)c21 (stereo not shown) [Compound 143]	100%	
	Cc1nc2cnn(C)c2c(=O)n1-c1cc(SCC(F)(F)F)c(Cl)cc1Cl [Compound 144]	90%	
	Cc1ccc(-n2c(C)nc3cnn(C)c3c2=O)cc1[S+]([O-])CC(F)(F)F (stereo not shown) [Compound 145]	100%	
	Cn1ncc2nnn(-c3cc(SCC(F)(F)F)c(Cl)cc3F)c(=O)c21 [Compound 150]	100%	
	Cc1cc(Cl)c(-n2cnc3cnn(C)c3c2=O)cc1SCC(F)(F)F [Compound 151]	100%	
	Cc1cc(Cl)c(-n2c(C)nc3cnn(C)c3c2=O)cc1SCC(F)(F)F [Compound 152]	90%	
	Cc1cc(Cl)c(-n2nnc3cnn(C)c3c2=O)cc1SCC(F)(F)F [Compound 154]	90%	
	Cn1ncc2ncn(-c3cc([S+]([O-])CC(F)(F)F)c(Cl)cc3F)c(=O)c21 (stereo not shown) [Compound 156]	100%	
	Cc1cc(Cl)c(-n2cnc3cnn(C)c3c2=O)cc1[S+]([O-])CC(F)(F)F (stereo not shown) [Compound 158]	100%	
	Cc1cc(F)c(-n2c(C)nc3cnn(C(C)C)c3c2=O)cc1[S+]([O-])CC(F)(F)F (stereo not shown) [Compound 166]	100%	
	Cc1cc(F)c(-n2cnc3nn(C)cc3c2=O)cc1SCC(F)(F)F [Compound 173]	90%	
	Cc1cc(F)c(-n2c(C)nc3nn(C)cc3c2=O)cc1SCC(F)(F)F [Compound 174]		efficacy in % (spider mites killed) ([1]; application rate 100 g/ha): 90%
	CCn1cc2c(=O)n(-c3cc(SCC(F)(F)F)c(C)cc3F)cnc2n1 [Compound 176]	90%	
	Cc1cc(F)c(-n2cnc3ncn(C)c3c2=O)cc1[S+]([O-])CC(F)(F)F (stereo not shown) [Compound 178]	100%	
	Cc1cc(F)c(-n2cnc3c(ncn3C)c2=O)cc1[S+]([O-])CC(F)(F)F (stereo not shown) [Compound 179]	100%	

chromatographic logP [2, 3]	SMILES	efficacy in % (spider mites killed) ([1]; application rate 500 g/ha)	also measured
	Cc1cc(F)c(-n2cnc3c(C)nsc3c2=O)cc1SCC(F)(F)F [Compound 180]	90%	
1.41	Cc1ccc(B(O)O)cc1[S+]([O-])CC(F)(F)F (stereo not shown) [VIIIb-7, {4-Methyl-3-[(2,2,2-trifluoroethyl)sulphinyl]phenyl}boronic acid]		chromatographic logP [2, 4]: 1.36
4.3	Cc1cc(F)c(Br)cc1SCC(F)(F)F [VIIa-1, 1-Bromo-2-fluoro-4-methyl-5-[(2,2,2-trifluoroethyl)sulphanyl]benzene]		chromatographic logP [2, 4]: 4.34
4.44	Cc1cc(F)c(I)cc1SCC(F)(F)F [VIIa-1-I, 1-Fluoro-2-iodo-5-methyl-4-[(2,2,2-trifluoroethyl)sulphanyl]benzene]		chromatographic logP [2, 4]: 4.44
4.8	FC(F)(F)CSc1cc(Br)c(Cl)cc1Cl [VIIa-6, 1-Bromo-2,4-dichloro-5-[(2,2,2-trifluoroethyl)sulphanyl]benzene]		chromatographic logP [2, 4]: 4.77
4.29	Cc1ccc(Br)cc1SCC(F)(F)F [VIIa-7, 5-Bromo-2-methylphenyl-2,2,2-trifluoroethyl sulphide]		chromatographic logP [2, 4]: 4.26
4.49	Cc1ccc(I)cc1SCC(F)(F)F [VIIa-7-I, 4-Iodo-1-methyl-2-[(2,2,2-trifluoroethyl)sulphanyl]benzene]		chromatographic logP [2, 4]: 4.48
3.69	COc1ccc(Br)cc1SCC(F)(F)F [VIIa-8, 4-Bromo-1-methoxy-2-[(2,2,2-trifluoroethyl)sulphanyl]benzene]		chromatographic logP [2, 4]: 3.81
3.21	N#Cc1ccc(Br)cc1SCC(F)(F)F [VIIa-9, 4-Bromo-2-[(2,2,2-trifluoroethyl)sulphanyl]benzonitrile]		chromatographic logP [2, 4]: 3.16
4.22	FC(F)(F)CSc1cc(Br)ccc1C(F)(F)F [VIIa-10, 4-Bromo-2-[(2,2,2-trifluoroethyl)sulphanyl]-1-(trifluoromethyl)benzene]		chromatographic logP [2, 4]: 4.2
4.81	Cc1cc(C)c(SCC(F)(F)F)cc1Br [VIIa-11, 1-Bromo-2,4-dimethyl-5-[(2,2,2-trifluoroethyl)sulphanyl]benzene]		chromatographic logP [2, 4]: 4.77
4.41	Cc1cc(F)c(NC(=O)C(F)(F)F)cc1SSc1cc(NC(=O)C(F)(F)F)c(F)cc1C [XI-1, N,N′-[Disulphanediylbis(6-fluoro-4-methylbenzene-3,1-diyl)]bis(2,2,2-trifluoroacetamide)]		
4.6	O=C(Nc1cc(SSc2cc(NC(=O)C(F)(F)F)c(F)cc2Cl)c(Cl)cc1F)C(F)(F)F [XI-2, N,N′-[Disulphanediylbis(4-chloro-6-fluorobenzene-3,1-diyl)]bis(2,2,2-trifluoroacetamide)]		chromatographic logP [2, 4]: 3.82
2.4	Cc1ccc(NC(=O)C(F)(F)F)c(F)c1 [XIII-1, 2,2,2-Trifluoro-N-(2-fluoro-4-methylphenyl)acetamide]		
	O=C(Nc1ccc(Cl)cc1F)C(F)(F)F [XIII-2, N-(4-Chloro-2-fluorophenyl)-2,2,2-trifluoroacetamide]		chromatographic logP [2, 5]: 2.53; chromatographic logP [2, 6]: 2.4
	O=[N+]([O-])c1ccc(Cl)c(SSc2cc([N+](=O)[O-])ccc2Cl)c1 [XIX-3, 1,1′-Disulphanediylbis(2-chloro-5-nitrobenzene)]		chromatographic logP [2, 5]: 5.03; chromatographic logP [2, 6]: 5.01
	O=[N+]([O-])c1cc(SSc2ccc(Cl)c([N+](=O)[O-])c2)ccc1Cl [XIX-4, 1,1′-Disulphanediylbis(4-chloro-3-nitrobenzene)]		chromatographic logP ([2]; pH 2.7, log P[a]): 4.58; chromatographic logP ([2]; pH 7.8, log P[b]): 4.58
	O=[N+]([O-])c1cc(SSc2ccc(F)c([N+](=O)[O-])c2)ccc1F [XIX-5, 1,1′-Disulphanediylbis(4-fluoro-3-nitrobenzene)]		chromatographic logP [2, 5]: 3.83; chromatographic logP [2, 6]: 3.79
	O=[N+]([O-])c1cc(SSc2cc([N+](=O)[O-])c(Cl)cc2Cl)c(Cl)cc1Cl [XIX-6, 1,1′-Disulphanediylbis(2,4-dichloro-5-nitrobenzene)]		chromatographic logP [2, 5]: 5.69; chromatographic logP [2, 6]: 5.64
3.7	Cc1cc(F)c(N)cc1S [XVI-1, 5-Amino-4-fluoro-2-methylbenzenethiol]		
1.64	Nc1ccc(Cl)c(S)c1 [XVI-3, 5-Amino-2-chlorobenzenethiol]		
1.78	CC(=O)Nc1cc(SC(C)=O)c(C)cc1F [XVII-1, S-(5-Acetamido-4-fluoro-2-methylphenyl)ethanethioate]		
3.31	Nc1ccc(Cl)c(SSc2cc(N)ccc2Cl)c1 [XVIII-3, 3,3′-Disulphanediylbis(4-chloroaniline)]		chromatographic logP [2, 4]: 3.35
3.84	Nc1cc(SSc2ccc(Cl)c(N)c2)ccc1Cl [XVIII-4, 3,3′-Disulphanediylbis(6-chloroaniline)]		chromatographic logP [2, 4]: 3.83
2.98	Nc1cc(SSc2ccc(F)c(N)c2)ccc1F [XVIII-5, 3,3′-Disulphanediylbis(6-fluoroaniline)]		chromatographic logP [2, 4]: 2.97
5.14	Nc1cc(SSc2cc(N)c(Cl)cc2Cl)c(Cl)cc1Cl [XVIII-6, 3,3′-Disulphanediylbis(4,6-dichloroaniline)]		chromatographic logP [2, 4]: 4.95
